Reference: publication PMC4864567, “Characterization of the ATP-Dependent Lon-Like Protease in Methanobrevibacter smithii” (Archaea, 2016)

Tests used:
Lon-like-Ms [1] = biological target: T1, Lon-like-Ms (Methanobrevibacter smithii, UniProt A5UP31); test: fluorogenic peptide cleavage (MNA release); type: biochemical; settings: 0.3 mM Glt-AAF-MNA, 10 mM MgCl2, pH 8.0, 37 °C; nucleotide required for activity, inhibitory at rising concentration; not a fitted IC50
T1 construct: gene Msm_1754
T1 sequence (A5UP31 1-682): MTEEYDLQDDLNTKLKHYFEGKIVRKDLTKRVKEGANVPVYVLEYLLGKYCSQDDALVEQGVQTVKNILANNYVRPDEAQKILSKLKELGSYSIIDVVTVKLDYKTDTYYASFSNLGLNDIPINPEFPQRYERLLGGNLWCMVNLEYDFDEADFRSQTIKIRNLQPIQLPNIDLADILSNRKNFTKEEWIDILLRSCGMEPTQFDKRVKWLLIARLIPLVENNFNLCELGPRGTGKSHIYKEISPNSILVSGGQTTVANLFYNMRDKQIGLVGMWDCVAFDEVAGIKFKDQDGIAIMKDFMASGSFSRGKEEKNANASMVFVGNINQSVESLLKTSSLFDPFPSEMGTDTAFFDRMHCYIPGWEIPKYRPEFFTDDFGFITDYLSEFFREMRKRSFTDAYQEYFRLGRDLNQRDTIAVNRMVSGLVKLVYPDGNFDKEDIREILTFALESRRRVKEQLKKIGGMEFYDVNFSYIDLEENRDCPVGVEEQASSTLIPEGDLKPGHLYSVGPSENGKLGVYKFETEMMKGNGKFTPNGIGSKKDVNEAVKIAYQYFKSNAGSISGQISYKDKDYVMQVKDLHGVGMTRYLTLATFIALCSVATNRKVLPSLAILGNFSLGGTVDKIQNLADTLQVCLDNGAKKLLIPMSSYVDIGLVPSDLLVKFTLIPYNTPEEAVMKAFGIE
From the text: fluorogenic peptide cleavage (MNA release) on Lon-like-Ms | reaching a decrease by half at 1-mM ATP or AMP-PNP

Lon-like-Ms [2] = biological target: T1, Lon-like-Ms; test: fluorogenic peptide cleavage (MNA release); type: biochemical; settings: ADP in place of ATP, with Mg2+; Glt-AAF-MNA, pH 8.0, 37 °C; called inhibitory, partial activity retained

Structure (SMILES)	concentration giving decrease by half (Lon-like-Ms [1])	fluorogenic peptide cleavage (MNA release) (Lon-like-Ms [2])
Nc1ncnc2c1ncn2[C@@H]1O[C@H](COP(=O)(O)OP(=O)(O)NP(=O)(O)O)[C@@H](O)[C@H]1O [5′-adenylyl imidodiphosphate]	~ 1 mM	–
Nc1ncnc2c1ncn2[C@@H]1O[C@H](COP(=O)(O)OP(=O)(O)O)[C@@H](O)[C@H]1O [ADP]	–	ADP, a potent inhibitor of Lon from E. coli, also inhibited the activity of Lon-like-Ms
Nc1ncnc2c1ncn2[C@@H]1O[C@H](COP(=O)(O)OP(=O)(O)OP(=O)(O)O)[C@@H](O)[C@H]1O [ATP]	~ 1 mM	–
